# Experimental data reported in US12115178B2, “Acylated active agents and methods of their use for the treatment of autoimmune disorders” (Flagship Pioneering Innovations V, Inc., priority 2018, dated 2024).
# Columns and labels:
# naïve CD4+ T cells = assay: Human regulatory T cell differentiation assay; format: cell-based; conditions: 6 days
# Procedure: Peripheral blood mononuclear cells (PBMCs) from whole blood donated by health volunteers were separated by Ficoll-Paque gradient centrifugation and naïve CD4^+ T cells were subsequently isolated using magnet beads (EasySep™ Human Naïve CD4^+ T Cell Isolation Kit, Cambridge, MA). For regulatory T cell (Treg) differentiation assay, naïve CD4^+ T cells were cultured (1-10×10^4 cells) in CTS OpTmizer medium for 6 days and stimulated with 5 ng/ml TGF-β, 100 U/ml IL-2, and ImmunoCult™ Human […] T Cell Activator; Stemcell #10990) with/without our Compounds. Cell viability was determined using a viability dye (eBioscience Fixable Viability Dye eFluor 780: ThermoFisher 65-0865-14) at 1:500 dilution. The cells were gated for Treg, defined as Live, CD11c^−, CD14^−, CD19^−, CD8^−, CD4^+, CD3^+, CD25^+, FOXP3^+. Percent (%) Tregs were calculated as percentage of CD4^+, CD25^+, FOXP3^+ cells over total CD4 T cells. Statistical analysis was performed with GraphPad Prism Software Using One-Way ANOVA.
# [1] = system: type II collagen arthritis; assay: In vivo rheumatoid arthritis model (semi-established type II collagen arthritis); set-up: species or system Lewis rats; conditions: for Mean Ankle Diameter AUC (mm*day) / Mean Ankle Periosteal Bone width (um) / Mean Knee Inflammation score (0-5) / Mean Terminal hind paw weights / Mean body weight change, day −1 to 21 (%) / Relative Spleen to Body Weight (Mean) / Mean Ankle Bone Resorption score (0-5) / Mean Ankle Cartilage Damage score (0-5) / Mean Ankle Pannus score (0-5) / Mean Ankle Periosteal Bone score (0-5) / Mean Ankle inflammation score (0-5) / Mean Knee Bone Resorption score (0-5) / Mean Knee Cartilage Damage score (0-5) / Mean Knee Pannus score (0-5) / Serum IgG: rats; for Mean Ankle Bone Resorption score (0-5) / Mean Ankle Cartilage Damage score (0-5) / Mean Ankle Pannus score (0-5) / Mean Ankle Periosteal Bone score (0-5) / Mean Ankle inflammation score (0-5) / Mean Knee Bone Resorption score (0-5) / Mean Knee Cartilage Damage score (0-5) / Mean Knee Pannus score (0-5): 0 = normal, 5 = severe; for Serum IgG: terminal serum ELISA for anti-type II collagen antibodies
# Procedure: A study was conducted to determine the efficacy of test articles dosed by the oral (PO) route for inhibition of the inflammation (paw swelling), cartilage destruction, and bone resorption that occurs in semi-established type II collagen arthritis in female Lewis rats. Rats (10 per group) were injected intradermally (ID) with porcine type II collagen to induce arthritis; one group of rats (4 per group) served as vehicle-treated naïve controls. […] Positive controls were treated PO, BID with the reference compound Tofacitinib citrate (10 mg/kg). The rats were euthanized for necropsy on study day 21 (animals #1-5 in each group, animals #1-2 in naïve group) or 22 (animals #6-10 in each group, animals #3-4 in naïve group). Efficacy evaluation was based on animal body weights (Table 9), daily ankle caliper measurements (FIG. 4), ankle diameter expressed as area under the curve (AUC) (Table 10), terminal hind paw weights (Table 11), histopathologic evaluation of hind paws (Ankle Inflammation score: Table 12, Ankle Pannus score: Table 13, Ankle Cartilage Damage score: Table 14, Ankle Bone Resorption score: Table 15, Ankle Periosteal Bone score: Table 16, Ankle Periosteal Bone Width: Table 17) and knees (Knee Inflammation score: Table 18, Knee Pannus score: Table 19, Knee Cartilage Damage score: Table 20, Knee Bone Resorption score: Table 21), and relative spleen to body weight ratio (Table 22). Terminal serum was analyzed by enzyme-linked immunosorbent assay (ELISA) for anti-type II collagen antibodies (IgG) (Table 23). […] Statistics were conducted using ordinary one-way ANOVA with Dunnett's multiple comparison correction in GraphPad Prism.
# [2] = Assay 2. Stability in Simulated Intestinal Fluid (SIF); format: in vitro ADME; conditions: SIF pH 6.7 with pancreatin, 1 μM, 37° C.
# Method in brief: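 Compounds at 1 µM (from 1 mM DMSO stock) were incubated at 37 °C with agitation in simulated intestinal fluid: FaSSIF in pH 6.7 phosphate buffer with pancreatin. Aliquots taken from T0 onward were quenched with acetonitrile and analyzed by LC/MS for degradation rate.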
# [3] = Assay 3. In vitro Colonic Material Stability Assay; format: in vitro ADME; conditions: colonic material slurry, anaerobic, 1 or 10 μM
smiles,measurement,setting,value
"C[C@@H](O)CCO [(R)-1,3-Butanediol]",Cell viability % DMSO,naïve CD4+ T cells; 100 uM,= (90%> <110%: =)
same,Cell viability % DMSO,naïve CD4+ T cells; 0.5 mM,= (90%> <110%: =)
"CC(=O)O [Acetic acid, acetic acid]",Cell viability % DMSO,naïve CD4+ T cells; 1 mM,= (90%> <110%: =)
same,Cell viability % DMSO,naïve CD4+ T cells; 3 mM,= (90%> <110%: =)
"CCCC(=O)O [Butyric acid, reference compound]",Cell viability % DMSO,naïve CD4+ T cells; 3 mM,− (<90%: −)
same,Mean Ankle Diameter AUC (mm*day),[1]; 420 mg/kg PO BID,92.46 mm*day
same,Mean Ankle Periosteal Bone width (um),[1]; 420 mg/kg PO BID,573.30 um
same,Mean Knee Inflammation score (0-5),[1]; 420 mg/kg PO BID,4.83
same,Mean Terminal hind paw weights,[1]; 420 mg/kg PO BID,2.4759 g
same,"Mean body weight change, day −1 to 21 (%)",[1]; 420 mg/kg PO BID,−2.3%
same,Relative Spleen to Body Weight (Mean),[1]; 420 mg/kg PO BID,0.2416
same,Mean Ankle Bone Resorption score (0-5),[1]; 420 mg/kg PO BID,2.95
same,Mean Ankle Cartilage Damage score (0-5),[1]; 420 mg/kg PO BID,3.80
same,Mean Ankle Pannus score (0-5),[1]; 420 mg/kg PO BID,2.95
same,Mean Ankle Periosteal Bone score (0-5),[1]; 420 mg/kg PO BID,3.08
same,Mean Ankle inflammation score (0-5),[1]; 420 mg/kg PO BID,2.4759
same,Mean Knee Bone Resorption score (0-5),[1]; 420 mg/kg PO BID,2.43
same,Mean Knee Cartilage Damage score (0-5),[1]; 420 mg/kg PO BID,3.28
same,Mean Knee Pannus score (0-5),[1]; 420 mg/kg PO BID,2.43
same,Serum IgG,[1]; 420 mg/kg PO BID,5824.57 µg/mL
"CCCC(=O)Oc1cc(OC(=O)CCC)c2c(=O)c(OC(=O)CCC)c(-c3ccc(OC(=O)CCC)c(OC(=O)CCC)c3)oc2c1 [Compound 5, [2-butanoyloxy-4-[3,5,7-tri(butanoyloxy)-4-oxo-chromen-2-yl]phenyl]butanoate]",Assay 2 (SIF) (% @ Remaining 4 hours),[2],B (25-75% of the tested compound remaining)
same,Mean Ankle Diameter AUC (mm*day),[1]; 100 mg/kg PO BID,89.38 mm*day
same,Mean Ankle Periosteal Bone width (um),[1]; 100 mg/kg PO BID,510.30 um
same,Mean Knee Inflammation score (0-5),[1]; 100 mg/kg PO BID,5.23
same,Mean Terminal hind paw weights,[1]; 100 mg/kg PO BID,2.3990 g
same,"Mean body weight change, day −1 to 21 (%)",[1]; 100 mg/kg PO BID,−7.1%
same,Relative Spleen to Body Weight (Mean),[1]; 100 mg/kg PO BID,0.2453
same,Mean Ankle Bone Resorption score (0-5),[1]; 100 mg/kg PO BID,2.53
same,Mean Ankle Cartilage Damage score (0-5),[1]; 100 mg/kg PO BID,3.55
same,Mean Ankle Pannus score (0-5),[1]; 100 mg/kg PO BID,2.53
same,Mean Ankle Periosteal Bone score (0-5),[1]; 100 mg/kg PO BID,2.68
same,Mean Ankle inflammation score (0-5),[1]; 100 mg/kg PO BID,2.3990
same,Mean Knee Bone Resorption score (0-5),[1]; 100 mg/kg PO BID,2.08
same,Mean Knee Cartilage Damage score (0-5),[1]; 100 mg/kg PO BID,2.93
same,Mean Knee Pannus score (0-5),[1]; 100 mg/kg PO BID,2.08
same,Serum IgG,[1]; 100 mg/kg PO BID,5937.67 µg/mL
same,Mean Ankle Diameter AUC (mm*day),[1]; 500 mg/kg PO BID,93.57 mm*day
same,Mean Ankle Periosteal Bone width (um),[1]; 500 mg/kg PO BID,699.30 um
same,Mean Knee Inflammation score (0-5),[1]; 500 mg/kg PO BID,5.65
same,Mean Terminal hind paw weights,[1]; 500 mg/kg PO BID,2.3994 g
same,"Mean body weight change, day −1 to 21 (%)",[1]; 500 mg/kg PO BID,−10.1%
same,Relative Spleen to Body Weight (Mean),[1]; 500 mg/kg PO BID,0.2534
same,Mean Ankle Bone Resorption score (0-5),[1]; 500 mg/kg PO BID,3.33
same,Mean Ankle Cartilage Damage score (0-5),[1]; 500 mg/kg PO BID,4.45
same,Mean Ankle Pannus score (0-5),[1]; 500 mg/kg PO BID,3.33
same,Mean Ankle Periosteal Bone score (0-5),[1]; 500 mg/kg PO BID,3.70
same,Mean Ankle inflammation score (0-5),[1]; 500 mg/kg PO BID,2.3994
same,Mean Knee Bone Resorption score (0-5),[1]; 500 mg/kg PO BID,2.65
same,Mean Knee Cartilage Damage score (0-5),[1]; 500 mg/kg PO BID,4.00
same,Mean Knee Pannus score (0-5),[1]; 500 mg/kg PO BID,2.65
same,Serum IgG,[1]; 500 mg/kg PO BID,5350.41 µg/mL
same,"effects on spleen weights relative to body weight, ankle diameter AUC, ankle pannus score, ankle bone resorption score, and ankle periosteal bone score","[1]; rat collagen arthritis, PO BID",significant beneficial effects
"CCCC(=O)Oc1cc(C(=O)O)cc(OC(=O)CCC)c1OC(=O)CCC [Compound 45, 3,4,5-tris(butyryloxy)benzoic acid]",Assay 3 (% Remaining at 24 h),[3],A (<25% of the tested compound remaining)
same,Assay 2 (SIF) (% @ Remaining 4 hours),[2],A (<25% of the tested compound remaining)
same,Mean Ankle Diameter AUC (mm*day),[1]; 500 mg/kg PO BID,94.20 mm*day
same,Mean Ankle Periosteal Bone width (um),[1]; 500 mg/kg PO BID,630.00 um
same,Mean Knee Inflammation score (0-5),[1]; 500 mg/kg PO BID,5.25
same,Mean Terminal hind paw weights,[1]; 500 mg/kg PO BID,2.3988 g
same,"Mean body weight change, day −1 to 21 (%)",[1]; 500 mg/kg PO BID,−6.3%
same,Relative Spleen to Body Weight (Mean),[1]; 500 mg/kg PO BID,0.2534
same,Mean Ankle Bone Resorption score (0-5),[1]; 500 mg/kg PO BID,3.48
same,Mean Ankle Cartilage Damage score (0-5),[1]; 500 mg/kg PO BID,4.20
same,Mean Ankle Pannus score (0-5),[1]; 500 mg/kg PO BID,3.48
same,Mean Ankle Periosteal Bone score (0-5),[1]; 500 mg/kg PO BID,3.38
same,Mean Ankle inflammation score (0-5),[1]; 500 mg/kg PO BID,2.3988
same,Mean Knee Bone Resorption score (0-5),[1]; 500 mg/kg PO BID,2.40
same,Mean Knee Cartilage Damage score (0-5),[1]; 500 mg/kg PO BID,3.63
same,Mean Knee Pannus score (0-5),[1]; 500 mg/kg PO BID,2.48
same,Serum IgG,[1]; 500 mg/kg PO BID,5431.64 µg/mL
